# In US9994515B2, “Aryl naphthyl methanone oxime(s) and process for preparation thereof” (Council of Scientific & Industrial Research, priority 2013, dated 2018):
# Where a name gives a salt, the structure may show the parent alone. Read-outs that look alike come from different tables or passages of the source.
# How the values were obtained:
# [1] = system: MCF-7 xenograft tumor; test: MCF-7 xenograft tumor in nude mice; format: in vivo, mouse; conditions: 16 mg·kg−1·day−1
# From the text: The effect of Centans on the growth of MCF-7 xenograft tumor was studied. […] Beyond 25 d, vehicle treated mice bearing tumors (control) show significant mortality (data not shown).
# Tumors from mice treated with Centans presented with large areas of stroma where deletion of epithelial cells had occurred as evident from few mitotic figures (FIG. 8B).
# FIG. 8 Regression of xenograft tumor by Centans in athymic nude mice. (A) Increase in relative tumor volume over time in various treatment groups indicated. N=10 mice/group; data represent mean±S.E.M. *P<0.05 and **P<0.01 compared to vehicle (carboxymethyl cellulose). (B) Effect of Centans treatment on tumor morphology. Representative tumor sections from mice treated with vehicle or Centans (16 mg·kg^−1·day^−1) for 25 days. (C) Effect of Centans treatment on PCNA levels were analyzed by Western blotting from in tumors of vehicle or Centans treated mice. Data represent mean±S.E.M. **P<0.01 compared to vehicle-treated control.
# [2] = system: PBMCs from patients with BCR-ABL E255V mutation; test: MTT cytotoxicity in PBMCs from CML patient with E255V BCR-ABL mutation; format: cell-based, human; conditions: 5 μM, 48 h
# [3] = system: HL-60; test: Differentiation of HL-60 cells (Wright-Giemsa staining, NBT reduction); format: cell-based; conditions: 1 μM; 3, 6 and 12 days
# Method: Differentiation potential of Centans on HL-60 cells was evaluated by the effect of this compound on Nuclear/cytosolic ratio and change in nuclear morphology, which are reliable markers of differentiation. For this, HL60 cell treated with Centans were cyto-spinned on microscope slides and stained with Wright-Giemsa and micro-photographed. […] This was further confirmed by nitro blue tetrazolium (NBT) reduction assay in HL-60 cells (NBT reduction is a hallmark of monocyte activity). FIG. 5A (lower panel) depicts time-dependent reduction of NBT by Centans-treated cells.
# FIG. 5. Centans induces granulocytic/monocytic differentiation in HL-60 model of AML. A. HL60 cells treated with Centans (1 μM) for 3, 6 and 12 days were cytospinned on Microscope slides and stained with Giemsa and May Grünwald solutions (upper panel) or NBT (lower panel), slides were microphotographed and used to detect change in nuclear morphology and NBT reduction. B. HL60 cells were treated with Vehicle (DMSO) or Centans as indicated in image, mRNA from these samples were isolated and reverse transcribed and these samples were used to measure the expression of CD11b GCSFR, and C/EBPα/β& ϵ by Quantitative real-time PCR, using GAPDH as normalizing control. Data presented as mean f SEM from three independent experiments; *P<0.05, **P<0.01, and ***P<0.001 compared to vehicle treated control.
# [4] = system: MCF-7; test: Annexin V/PI apoptosis flow cytometry in MCF-7; format: cell-based; conditions: 24 h
# Method: To assess if the cell death induced by centans in MCF-7 and MDA-MB231 lines is apoptotic in nature, apoptosis was measured by flow cytometry using annexin V/PI staining kit from Sigma according to manufacturer's instructions.
# FIG. 6 Apoptosis induction by Centans in breast cancer cells. Annexin V/PI staining of (A) MCF-7 and (B) MDA-MB231 cells were treated with vehicle (DMSO) or Centans at indicated concentrations for 24 h and […] was assessed by flow cytometry using the FL1-H channel (Annexin-V) and FL2-H channel (PI) of a Becton Dickinson FACS Calibur. Shown are representative dot plots. Quantification of flow cytometry data shown as percent of total cells (right panel). Data presented as mean±SEM from three independent experiments; *P<0.05, **P<0.01, and ***P<0.001 compared to control.
# [5] = target: T1, EGFR (Homo sapiens, UniProt P00533); test: EGF dependent EGFR phosphorylation ELISA in MDA-MB-231 cells; format: cell-based; conditions: read-out: IC50 in terms of EGFR phosphorylation
# T1 construct: Serum starved (A,C) MCF-7 cells and (B,D) MDA-MB231 cells were pre-incubated for 1 h; endogenous in cells; host or cells: MCF-7
# T1 sequence (P00533 25-1210): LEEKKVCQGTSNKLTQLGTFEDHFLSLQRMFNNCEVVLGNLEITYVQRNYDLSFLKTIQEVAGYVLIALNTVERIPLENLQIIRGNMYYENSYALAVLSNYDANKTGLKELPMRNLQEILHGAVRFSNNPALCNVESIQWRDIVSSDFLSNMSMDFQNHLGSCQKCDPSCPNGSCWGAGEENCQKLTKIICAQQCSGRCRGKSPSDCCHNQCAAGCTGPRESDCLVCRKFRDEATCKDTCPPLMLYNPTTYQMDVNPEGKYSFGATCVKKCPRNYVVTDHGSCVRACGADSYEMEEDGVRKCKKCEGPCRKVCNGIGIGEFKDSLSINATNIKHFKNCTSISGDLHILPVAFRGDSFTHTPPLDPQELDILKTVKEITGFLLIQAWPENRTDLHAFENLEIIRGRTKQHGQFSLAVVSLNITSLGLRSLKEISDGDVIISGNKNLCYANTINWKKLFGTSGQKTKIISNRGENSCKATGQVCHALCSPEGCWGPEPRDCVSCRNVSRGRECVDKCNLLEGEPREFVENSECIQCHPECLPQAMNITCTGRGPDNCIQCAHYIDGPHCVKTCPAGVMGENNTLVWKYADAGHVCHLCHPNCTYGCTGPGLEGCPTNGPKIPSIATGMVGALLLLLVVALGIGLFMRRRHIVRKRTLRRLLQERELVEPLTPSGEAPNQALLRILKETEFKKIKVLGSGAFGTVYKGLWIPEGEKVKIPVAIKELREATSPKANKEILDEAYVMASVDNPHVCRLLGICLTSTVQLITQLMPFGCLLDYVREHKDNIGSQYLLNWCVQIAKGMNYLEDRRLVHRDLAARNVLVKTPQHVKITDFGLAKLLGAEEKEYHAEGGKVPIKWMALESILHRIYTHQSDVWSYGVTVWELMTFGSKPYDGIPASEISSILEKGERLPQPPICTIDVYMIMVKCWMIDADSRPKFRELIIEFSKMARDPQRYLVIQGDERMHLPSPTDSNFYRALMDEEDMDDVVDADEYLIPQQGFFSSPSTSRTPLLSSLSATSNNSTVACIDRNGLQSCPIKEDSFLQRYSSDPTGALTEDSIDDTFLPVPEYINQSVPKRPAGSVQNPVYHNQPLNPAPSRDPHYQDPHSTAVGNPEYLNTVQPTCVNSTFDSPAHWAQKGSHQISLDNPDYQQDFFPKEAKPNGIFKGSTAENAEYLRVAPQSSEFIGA
# Method: (§1) Since EGFR and Her2 play major roles in breast cancer development and metastatis, the effect of Centans on regulation of these two factors was evaluated in MCF-7 and MDA-MB-231 cells by enzyme-linked immunosorbant assays (ELISA). As depicted in FIGS. 7. A and B, EGF dependent EGFR phosphorylation at Tyr^1068 was strongly attenuated by Centans in both MCF-7 and MDA-MB-231 cells and this effect was much stronger than that of Gefitinib (marketted EGFR inhibitor/anti-cancer drug).
# (§2) FIG. 7. Inhibition of EGFR and Her2 phosphorylation by Centans in MCF-7 and MDA-MB231 cells. Serum starved (A,C) MCF-7 cells and (B,D) MDA-MB231 cells were pre-incubated for 1 h with the indicated concentrations of Centans prior to stimulation with EGF for 15 min and EGFR (A and B) or Her2 (C and D) phosphorylation were measured by ELISA. Gef=Gefitinib. All doses are in μM.
# [6] = system: PBMCs isolated from healthy individuals; test: MTT cytotoxicity in PBMCs from healthy controls; conditions: 1 μM, 48 h
# [7] = system: MDA-MB231; test: MTT assay in MDA-MB-231 breast tumor cells; format: cell-based; conditions: Homo sapiens, MDA-MB-231, Table 6, 48 h, 10 point dose response
# [8] = system: U937; test: Cytotoxicity in U937 cells; format: cell-based; conditions: Table 2; oxalate
# [9] = system: MCF-7; test: MTT assay in MCF-7 breast tumor cells; format: cell-based; conditions: Homo sapiens, MCF7, Table 6, 48 h, 10 point dose response
# [10] = system: SW620; test: Sulphorhodamine B assay in SW620 colon cancer cells; format: cell-based; conditions: Homo sapiens, SW-620; SRB assay
# [11] = target: T2, Her2 (Homo sapiens, UniProt P04626); test: Her2 phosphorylation ELISA in MDA-MB-231 cells; format: cell-based
# T2 construct: Serum starved (A,C) MCF-7 cells and (B,D) MDA-MB231 cells were pre-incubated for 1 h; endogenous in cells; host or cells: MCF-7
# T2 sequence (P04626 23-1255): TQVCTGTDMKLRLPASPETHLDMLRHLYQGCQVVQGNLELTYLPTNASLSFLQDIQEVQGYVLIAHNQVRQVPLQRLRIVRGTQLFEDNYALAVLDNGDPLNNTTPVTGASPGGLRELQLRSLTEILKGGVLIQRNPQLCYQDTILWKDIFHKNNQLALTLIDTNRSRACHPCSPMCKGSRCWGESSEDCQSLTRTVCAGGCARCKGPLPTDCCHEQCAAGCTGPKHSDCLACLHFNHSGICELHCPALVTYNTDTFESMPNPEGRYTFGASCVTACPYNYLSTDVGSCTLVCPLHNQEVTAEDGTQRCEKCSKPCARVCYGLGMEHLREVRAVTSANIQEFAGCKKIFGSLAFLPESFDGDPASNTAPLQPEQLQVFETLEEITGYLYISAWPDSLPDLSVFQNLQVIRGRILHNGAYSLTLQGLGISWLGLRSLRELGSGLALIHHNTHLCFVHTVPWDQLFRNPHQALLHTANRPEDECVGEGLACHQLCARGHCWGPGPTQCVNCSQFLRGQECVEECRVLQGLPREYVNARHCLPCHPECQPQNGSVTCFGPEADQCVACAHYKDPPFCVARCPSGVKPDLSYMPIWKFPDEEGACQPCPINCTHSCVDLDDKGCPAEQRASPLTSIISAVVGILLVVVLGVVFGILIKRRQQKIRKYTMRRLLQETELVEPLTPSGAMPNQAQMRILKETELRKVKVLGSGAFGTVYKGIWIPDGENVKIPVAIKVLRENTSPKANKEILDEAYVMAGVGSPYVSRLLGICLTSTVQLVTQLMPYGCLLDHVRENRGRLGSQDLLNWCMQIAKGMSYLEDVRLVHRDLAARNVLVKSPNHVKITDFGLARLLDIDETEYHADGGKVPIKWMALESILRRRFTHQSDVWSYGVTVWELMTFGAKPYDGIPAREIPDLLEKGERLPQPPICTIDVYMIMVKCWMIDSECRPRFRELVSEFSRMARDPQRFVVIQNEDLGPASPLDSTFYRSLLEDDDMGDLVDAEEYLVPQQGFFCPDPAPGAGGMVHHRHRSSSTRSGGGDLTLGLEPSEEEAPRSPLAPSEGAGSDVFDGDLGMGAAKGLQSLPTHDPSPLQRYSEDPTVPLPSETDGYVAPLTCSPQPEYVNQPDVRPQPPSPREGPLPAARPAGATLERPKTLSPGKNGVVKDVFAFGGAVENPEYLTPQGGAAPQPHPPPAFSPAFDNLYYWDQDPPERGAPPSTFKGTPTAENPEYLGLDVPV
# Method: as §1, §2
# [12] = system: HL60; test: MTT cytotoxicity assay in HL-60 cells; format: cell-based; conditions: Homo sapiens
# [13] = system: Ishikawa; test: MTT assay in Ishikawa endometrial adenocarcinoma cells; format: cell-based; conditions: Homo sapiens, Ishikawa, Table 6, 48 h, 10 point dose response
# [14] = system: PBMCs from patients with BCR-ABL T315I mutation; test: MTT cytotoxicity in PBMCs from CML patient with T315I BCR-ABL mutation; format: cell-based, human; conditions: 5 μM, 48 h
# [15] = system: K562; test: MTT cytotoxicity assay in K562 cells; format: cell-based; conditions: Homo sapiens, K562, 48 h, Table 3; MTT, 48 h, 10 point dose response; read-out: IC 50 K562
# [16] = system: DU-145; test: MTT assay in DU-145 prostate tumor cells; format: cell-based; conditions: Homo sapiens, DU-145, Table 6, 48 h, 10 point dose response
compound,measurement,setting,value
"CCN(CC)CCO/N=C(/c1ccc(SC)cc1)c1cccc2ccccc12 [Compound 5d, (4-(methylthio)phenyl)(naphthalen-1-yl)methanone O-2-(diethylamino)ethyl oxime oxalate]",reduction in relative tumor volume compared to vehicle treated mice,[1]; days 21 and 25 after inoculation,~50%
same,PCNA levels in tumors,[1]; western blotting,significant reduction in the levels of PCNA
same,% cell death,[2],48.18%
same,differentiation of HL-60 cells,[3],"morphological features of differentiation, such as condensation of nuclei and protrusion of cytoplasm, were clearly evident"
same,apoptotic cell population,[4],concentration-dependent increase in apoptotic cell population
same,IC50,[5],0.0128 µM
same,% cell death,[6]; healthy control sample C1,14.01%
same,% cell death,[6]; healthy control sample C2,20.65%
same,% cell death,[6]; healthy control sample C3,16.93%
same,"% cell death, Average","[6]; healthy control, average of C1-C3",17.2%
same,IC50,[7],7.2 µM
same,IC50,[8],8.12 µM
same,IC50,[9],7.5 µM
same,IC50,[10],8.78 µM
same,HER2 phosphorylation,[11],significantly reduced HER2 phosphorylation in a dose-dependent manner
same,IC50,"[12]; HL-60, 48 h, Table 3, MTT, 48 h, 10 point dose response, read-out: IC 50 HL 60",5.99 µM
same,IC50,"[12]; HL-60, Table 2",5.99 µM
same,IC50,[13],12 µM
same,% cell death,[14],34.60%
same,IC50,[15],3.61 µM
same,IC50,[16],9 µM
